Data: patent US20140031324A1, “COMPOUND COMPOSITION FOR INHALATION USED FOR TREATING ASTHMA” (Intech Biopharm Ltd., priority 2010, published 2014)

Columns and labels:
OVA-sensitized mice = assay: Albumin (OVA)-induced asthma model in mice; methacholine-induced tracheal contraction (airway hyperresponsiveness, FlexiVent); format: in vivo, Balb/c mice; conditions: single super high dose, alone or in combination, intratracheal, FIGS. 2 to 4
Procedure: An albumin-inducing asthma model in mice was used to conduct related tests. In accordance with the control group and the experimental group, the mice were divided into the different groups to conduct the experiment. The control group includes a normal control group which none sensitized mice are given saline (no drug), and an asthma control group which sensitized mice are treated with vehicle. The experimental group is divided into sub-group according to different methods of administering drugs. Respectively, such as the group which is using different dosage and different frequency of the beta2-agonist alone and the group which is using different dosage and different frequency of the pharmaceutical combination of the beta2-agonist with the corticosteroid.
The mice which are for sensitization all experience three times of the peritoneal albumin (OVA) injection with ten-day intervals in advance, on the 24th day, collect the blood sample and exam the IgE to confirm allergy. Then, on the 26th day, albumin was administered in the nasal cavities of the mice. And, from the 30th day, the intratracheal administration is divided into groups of once time dosing and seven-day dosing which is further divided into once or twice daily groups. After the last dose, perform a tracheotomy and intubation and use instruments collect the data of that Methacholine (MCh), induces tracheal contraction. […]

[1] = long acting beta-2 agonists (LABA); cited from earlier work

Structure (SMILES) | acute drug tolerance (ability of trachea relaxing) (OVA-sensitized mice) | duration of action [1]
CCC(NC(C)C)C(O)c1ccc(O)c2[nH]c(=O)ccc12 (stereo not drawn) [Procaterol] | acute drug tolerance phenomenon of reducing the ability of trachea relaxing | –
OCc1cc(C(O)CNCCCCCCOCCCCc2ccccc2)ccc1O (stereo not drawn) [Salmeterol, Salmeterol Xinafoate] | acute drug tolerance phenomenon of reducing the ability of trachea relaxing | up to twelve
